Laboratory results as given in ChEMBL document CHEMBL1759842, “Discovery of non-glucoside SGLT2 inhibitors” (Bioorg Med Chem Lett, 2011).

Experiments:
[1] = molecular target: T1, Sodium/glucose cotransporter 1 (Homo sapiens, UniProt P13866); assay: Inhibition of human SGLT1 expressed in CHO cells assessed as inhibition of [14C]-alpha-methyl-D-glucopyranoside transport after 60 mins by scintillation counting; format: cell-based
T1 sequence (P13866 whole entry): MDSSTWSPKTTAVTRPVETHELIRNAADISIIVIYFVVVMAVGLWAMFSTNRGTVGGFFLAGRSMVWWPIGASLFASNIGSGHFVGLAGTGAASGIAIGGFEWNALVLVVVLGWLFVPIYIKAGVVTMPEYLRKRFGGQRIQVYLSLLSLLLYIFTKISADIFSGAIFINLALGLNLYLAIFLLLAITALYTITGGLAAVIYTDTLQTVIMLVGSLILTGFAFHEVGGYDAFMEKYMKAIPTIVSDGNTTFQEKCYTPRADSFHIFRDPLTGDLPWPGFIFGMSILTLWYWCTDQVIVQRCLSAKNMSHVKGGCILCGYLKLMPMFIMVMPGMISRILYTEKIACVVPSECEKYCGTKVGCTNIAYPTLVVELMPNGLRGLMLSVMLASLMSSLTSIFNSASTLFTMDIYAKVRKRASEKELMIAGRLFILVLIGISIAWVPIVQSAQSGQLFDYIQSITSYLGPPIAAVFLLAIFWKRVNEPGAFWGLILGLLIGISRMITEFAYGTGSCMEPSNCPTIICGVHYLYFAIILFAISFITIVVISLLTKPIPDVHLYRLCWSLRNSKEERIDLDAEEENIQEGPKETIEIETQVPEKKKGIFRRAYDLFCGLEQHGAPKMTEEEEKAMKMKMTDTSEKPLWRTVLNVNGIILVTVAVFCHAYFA

[2] = molecular target: T2, Sodium/glucose cotransporter 2 (Homo sapiens, UniProt P31639); assay: Inhibition of human SGLT2 expressed in CHO cells assessed as inhibition of [14C]-alpha-methyl-D-glucopyranoside transport after 60 mins by scintillation counting; format: cell-based
T2 sequence (P31639 whole entry): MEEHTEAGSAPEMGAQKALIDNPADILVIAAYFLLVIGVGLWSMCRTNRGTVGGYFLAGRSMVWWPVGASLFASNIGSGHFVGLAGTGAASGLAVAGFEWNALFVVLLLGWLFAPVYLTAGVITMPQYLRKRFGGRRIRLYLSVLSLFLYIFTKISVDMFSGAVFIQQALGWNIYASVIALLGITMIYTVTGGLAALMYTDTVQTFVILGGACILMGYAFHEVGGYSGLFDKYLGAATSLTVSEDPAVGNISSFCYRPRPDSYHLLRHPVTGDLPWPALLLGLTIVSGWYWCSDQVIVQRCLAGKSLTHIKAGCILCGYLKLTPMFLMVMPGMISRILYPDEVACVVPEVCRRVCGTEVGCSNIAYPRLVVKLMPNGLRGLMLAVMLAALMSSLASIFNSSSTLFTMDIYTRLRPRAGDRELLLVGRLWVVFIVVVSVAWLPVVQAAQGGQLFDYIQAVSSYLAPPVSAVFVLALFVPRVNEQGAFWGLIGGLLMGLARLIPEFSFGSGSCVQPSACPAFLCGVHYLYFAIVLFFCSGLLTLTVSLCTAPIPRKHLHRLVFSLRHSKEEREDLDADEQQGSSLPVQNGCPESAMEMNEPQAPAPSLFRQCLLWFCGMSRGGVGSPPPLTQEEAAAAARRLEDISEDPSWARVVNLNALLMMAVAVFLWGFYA

[3] = molecular target: T2, Sodium/glucose cotransporter 2; assay: Displacement of [3H]dapagliflozin from human SGLT2 expressed in CHO cells after 60 mins by scintillation counting; format: cell-based
[4] = Metabolic stability in human liver microsomes assessed as compound remaining after 30 mins; format: ADME, Microsome; conditions: read-out: Stability
[5] = molecular target: T3, Sodium/myo-inositol cotransporter 2 (Homo sapiens, UniProt Q8WWX8); assay: Inhibition of SGLT6 expressed in CHO cells assessed as inhibition of [14C]-alpha-methyl-D-glucopyranoside transport after 60 mins by scintillation counting; format: cell-based
T3 sequence (Q8WWX8 whole entry): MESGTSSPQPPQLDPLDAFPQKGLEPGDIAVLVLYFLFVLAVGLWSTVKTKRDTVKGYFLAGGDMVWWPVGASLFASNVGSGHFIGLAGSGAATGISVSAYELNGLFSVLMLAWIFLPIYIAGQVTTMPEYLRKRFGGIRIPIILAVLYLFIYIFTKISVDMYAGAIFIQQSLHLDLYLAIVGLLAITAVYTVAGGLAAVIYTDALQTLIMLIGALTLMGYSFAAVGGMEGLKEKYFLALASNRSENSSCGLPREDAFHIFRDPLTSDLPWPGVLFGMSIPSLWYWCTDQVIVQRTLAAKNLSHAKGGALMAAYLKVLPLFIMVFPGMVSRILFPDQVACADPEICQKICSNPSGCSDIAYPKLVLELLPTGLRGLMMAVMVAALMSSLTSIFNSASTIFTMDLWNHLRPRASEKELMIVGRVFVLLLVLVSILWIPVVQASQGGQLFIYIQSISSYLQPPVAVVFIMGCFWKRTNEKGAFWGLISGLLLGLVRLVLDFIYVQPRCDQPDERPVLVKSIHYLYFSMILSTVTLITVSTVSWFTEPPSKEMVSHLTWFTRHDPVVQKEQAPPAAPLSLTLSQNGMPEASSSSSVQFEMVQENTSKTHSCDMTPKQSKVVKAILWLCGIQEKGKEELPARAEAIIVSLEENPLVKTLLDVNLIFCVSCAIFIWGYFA

[6] = Metabolic stability in rat liver microsomes assessed as compound remaining after 30 mins; format: ADME, Microsome; conditions: read-out: Stability
[7] = molecular target: T2, Sodium/glucose cotransporter 2; assay: Inhibition of human SGLT2 expressed in CHO cells assessed as inhibition of [14C]-alpha-methyl-D-glucopyranoside transport after 60 mins by scintillation counting in presence of 100% plasma; format: cell-based

Row | Structure (SMILES) | IC50 [1] | IC50 [2] | also measured
1 | CCn1c(CN2C(=O)CSc3ccc(C(F)(F)F)cc32)nnc1SCc1ccc(Cl)cc1 | 4750 nM | 370 nM | 
2 | CC(C)n1c(CN2C(=O)CSc3ccc(C(F)(F)F)cc32)nnc1SCc1ccc(Cl)cc1 | 2000 nM | 1200 nM | 
3 | O=C1CSc2ccc(C(F)(F)F)cc2N1Cc1nnc(SCc2ccc(Cl)cc2)n1C1CC1 | 3750 nM | 1100 nM | 
4 | O=C1CSc2ccc(C(F)(F)F)cc2N1Cc1nnc(SCc2ccc(Cl)cc2)n1-c1ccccc1 | 3470 nM | 2110 nM | 
5 | CCn1c(CN2C(=O)COc3ccc(C(F)(F)F)cc32)nnc1SCc1ccc(Cl)cc1 | 6640 nM | 250 nM | 
6 | CCn1c(CN2C(=O)COc3ccc([N+](=O)[O-])cc32)nnc1SCc1ccc(Cl)cc1 | 5610 nM | 2100 nM | 
7 | CCn1c(CN2C(=O)COc3ccc(Br)cc32)nnc1SCc1ccc(Cl)cc1 | 5320 nM | 90 nM | 
8 | CCn1c(CN2C(=O)COc3ccc(Cl)cc32)nnc1SCc1ccc(Cl)cc1 | 7340 nM | 150 nM | 
9 | CCn1c(CN2C(=O)COc3ccc(C)cc32)nnc1SCc1ccc(Cl)cc1 | 7130 nM | 80 nM | 
10 | CCn1c(CN2C(=O)COc3cc(Cl)ccc32)nnc1SCc1ccc(Cl)cc1 | 3290 nM | 430 nM | 
11 | CCn1c(CN2C(=O)COc3cc(Br)ccc32)nnc1SCc1ccc(Cl)cc1 | 2530 nM | 520 nM | 
12 | CCn1c(CN2C(=O)COc3c(Cl)cccc32)nnc1SCc1ccc(Cl)cc1 | 7340 nM | 150 nM | 
13 | CCn1c(CCc2ccc(Cl)cc2)nnc1CN1C(=O)COc2ccc(C(F)(F)F)cc21 | 46000 nM | 640 nM | 
14 | CCCn1c(CCc2ccc(Cl)cc2)nnc1CN1C(=O)COc2ccc(C(F)(F)F)cc21 | 9880 nM | 180 nM | 
15 | CCCn1c(CCc2ccc(Cl)cc2)nnc1CN1C(=O)COc2ccc(Cl)cc21 | 13600 nM | 40 nM | 
16 | CCCCn1c(CCc2ccc(Cl)cc2)nnc1CN1C(=O)COc2ccc(Cl)cc21 | 11800 nM | 30 nM | 
17 | O=C1COc2ccc(Cl)cc2N1Cc1nnc(CCc2ccc(Cl)cc2)n1CC1CC1 | 7280 nM | 30 nM | 
18 | CC(C)Cn1c(CCc2ccc(Cl)cc2)nnc1CN1C(=O)COc2ccc(Cl)cc21 | 6900 nM | 160 nM | 
19 | O=C1COc2ccc(Cl)cc2N1Cc1nnc(CCc2ccc(Cl)cc2)n1CCC(F)(F)F | 13800 nM | 70 nM | 
20 | O=C1COc2ccc(Cl)cc2N1Cc1nnc(CCc2ccc(Cl)cc2)n1C1CC1 | 25000 nM | 1580 nM | 
21 | CCCn1c(CCc2ccc(Cl)cc2)nnc1CN1C(=O)COc2c(Cl)cc(Cl)cc21 | 9140 nM | 9 nM | IC50 [3]: 16 nM; remaining at 0.5 h [4]: 4%; IC50 [5]: 14400 nM; remaining at 0.5 h [6]: 4%; IC50 [7]: 40 nM
22 | O=C1COc2c(Cl)cc(Cl)cc2N1Cc1nnc(CCc2ccc(Cl)cc2)n1CCC(F)(F)F |  |  | remaining at 0.5 h [4]: 4%; IC50 [5]: 9200 nM; remaining at 0.5 h [6]: 4%
23 | CCOc1ccc(Cc2cc([C@@H]3O[C@H](CO)[C@@H](O)[C@H](O)[C@H]3O)ccc2Cl)cc1 [DAPAGLIFLOZIN] |  |  | IC50 [5]: 380 nM
